Data as given in patent US12503452B2 (Curza Global, LLC, priority 2019, dated 2025).
Where a name gives a salt, the structure may show the parent alone. Read-outs that look alike come from different tables or passages of the source.

Legend:
[1] = tested on: E. coli S30 extract (bacterial protein synthesis); test: E. coli S30 extract coupled transcription-translation luciferase assay (inhibition of bacterial protein synthesis); format: biochemical; conditions: read-out: S30 IC50 (μM/% inhib.)
Experimental: E. coli S30 extract: Inhibition of bacterial protein synthesis was determined using the E. coli S30 Extract System for Circular DNA (Promega catalog #L-2010) and Luciferase Assay Reagent (Promega catalog #E1500) with slight modifications to a published protocol. Fyfe, C., Sutcliffe, J. A. and Grossman, T. H. (2012) “Development and characterization of a Pseudomonas aeruginosa in vitro coupled transcription-translation assay system for evaluation of translation inhibitors” J. Microbiol. Methods 90(3), 256-261.
Compounds were serial diluted in 0.5 mL microcentrifuge tubes by mixing and transferring 50 μL from the highest concentration to 50 μL of water, mixing and transferring 50 μL of this 2-fold dilution to 50 μL of water. This mixing and transferring was repeated so that there are a total of 8 tubes with serial dilutions of compound at 10× the desired screening concentration that are ultimately diluted to 1× by the addition of S30 luciferase synthesis mixture. Serial dilutions of compounds were added (2 μL) to wells in a black round bottom 96-well plate. Water (2 μL) was used as a “no inhibitor” control in 4 wells/plate. No DNA control reaction mixture (20 μL; see below) was used as a control in 4 wells/plate for background luminescence. S30 luciferase synthesis mixture (18 μL; see below) was added to wells with compounds or water mixture and incubated at 37° C. for 1 hour. Reactions were stopped by transferring to 4° C. refrigerator for 5 minutes then 25 μL of luciferase activity mix was added. Luminescence was measured using a BioTek Synergy HTX plate reader. % Inhibition was determined relative to no inhibitor controls.
S30 luciferase synthesis mixture:
• 445 μL S30 extract, circular • 712 μL S30 Premix without amino acids • 4.45 μL pBESTluc™ DNA (1 μg/μL) • 78 μL complete amino acid mixture • 267 μL water No DNA control: • 20 μL S30 extract, circular • 32 μL S30 Premix without amino acids • 7 μL complete amino acid mixture • 21 μL water Rabbit Reticulocyte lysate

[2] = biological target: Rabbit Reticulocyte Lysate (eukaryotic protein synthesis); test: Rabbit reticulocyte lysate luciferase assay (inhibition of eukaryotic protein synthesis); format: biochemical; conditions: read-out: Rabbit reticulocyte IC50 (μM/% inhib.)
Experimental: Inhibition of eukaryotic protein synthesis was determined using the Rabbit Reticulocyte Lysate System, Nuclease-Treated from Promega (catalog #L-4960) with slight modifications to the manufacturer's protocol. Compounds were serial diluted in 0.5 mL microcentrifuge tubes by mixing and transferring 50 μL from the highest concentration to 50 μL of water, mixing and transferring 50 μL of this 2-fold dilution to 50 μL of water. This mixing and transferring was repeated so that there are a total of 8 tubes with serial dilutions of compound at 10× the desired screening concentration that are ultimately diluted to 1× by the addition of rabbit reticulocyte luciferase synthesis mixture. Serial dilutions of compounds were added ([…]) to wells in a black round bottom 96-well plate. Water (2.5 μL) was used as a “no inhibitor” control in 4 wells/plate. No RNA control reaction mixture ([…]; see below) was used as a control in 4 wells/plate for background luminescence. Rabbit reticulocyte luciferase synthesis mixture (22.5 μL; see below) was added to wells with compounds or water mixture and incubated at 30° C. for 90 minutes. Luciferase assay reagent (25 μL) was added with luminescence measured using a BioTek Synergy HTX plate reader. % Inhibition was determined relative to no inhibitor controls.
Rabbit reticulocyte luciferase synthesis mixture:
• 1,000 μL rabbit reticulocyte lysate • 5.7 μL Luciferase Control RNA (1 μg/μL) • 26 μL complete amino acid mixture • 395 μL water No RNA Control • 70 μL rabbit reticulocyte lysate • 2 μL complete amino acid mixture • 28 μL water Minimum Inhibitory Concentration (MIC)

E. coli (Ec) = test: Broth microdilution minimum inhibitory concentration (MIC); format: cell-based; conditions: Escherichia coli, read-out: E. coli + bicarb MIC
Experimental: (§1) A certified BSL-2 laboratory was used for testing. Compounds were evaluated using the broth microdilution minimum inhibitory concentration (MIC) and minimum bactericidal concentration (MBC) assays defined by Clinical and Laboratory Standards Institute (CLSI) in the M26-A guideline against S. aureus (Sa), E. coli (Ec), K. pneumoniae (Kp), A. baumannii (Ab), E. faecalis (Ef) and P. aeruginosa (Pa).
(§2) MICs were determined using the Clinical Laboratory and Standards Institute (CLSI) Broth Microdilution Method with slight modification. Clinical and Laboratory Standards Institute (2012). “Methods for dilution antimicrobial susceptibility tests for bacteria that grow aerobically; approved standard, 9th ed. M07-A9. Clinical and Laboratory Standards Institute, Wayne, PA” Serial two-fold dilutions of compounds are prepared in sterile clear round-bottom 96-well plates.
(§3) To prepare microdilution trays, two-fold dilutions of antimicrobial agent are prepared in growth medium: Cation-Adjusted Mueller-Hinton Broth (CAMHB), or CAMHB supplemented with sodium bicarbonate (6.25 or 25 mM final concentration prepared from a 1.0M stock solution) or CAMHB supplemented with heat inactivated human serum (Fisher Cat. #BP2657100) 0-50% by adding 200 μL of the highest concentration to be tested (64 μg/mL, for example) in row A, mixing and transferring 100 μL from row A to 100 μL growth medium in row B, then repeating the mixing and transferring through row H of the 96-well plate, discarding the excess 100 μL remaining. This slight modification to the CLSI protocol enables evaluation of MICs for 3 compounds per plate in triplicate, albeit with only 8 compound dilutions (CLSI protocol enables 2 compounds in triplicate with 10 dilutions). Bacterial suspensions are added to a final concentration of 5×10^4 CFU/well by adding 5 μL of a 1:10 dilution of a 0.5 McFarland suspension (1×10^8 CFU/mL) for each bacterium evaluated. Bacterial suspensions were prepared using the growth method described by CLSI. Well-isolated colonies (3-5 from an agar plate) were selected using a sterile loop and used to inoculate a tube containing 4 mL of CAMHB. The cultures are incubated at 35±2° C. until it achieves or exceeds the turbidity of the 0.5 McFarland standard, determined by measuring A600nm (usually two to six hours). When growth exceeds a 0.5 McFarland standard, the turbidity is adjusted with broth to be equivalent to a 0.5 McFarland standard.

P. aeruginosa (Pa) = test: as above; format: cell-based; conditions: Pseudomonas aeruginosa, P. aeruginosa; growth medium supplemented with sodium bicarbonate; read-out: Pa MIC + bicarb
Experimental: as §1, §2, §3

[3] = class by IC50 or % inhibition @ 1 μM
[4] = E. coli, growth medium supplemented with sodium bicarbonate
[5] = E. coli, growth medium with sodium bicarbonate

Compound | IC50 [1, 3] [µM] | IC50 [2, 3] [µM] | MIC (E. coli (Ec); [4]) [µg/mL] | MIC (P. aeruginosa (Pa)) [µg/mL] | IC50 ([1]; class by IC50 or % inhibition @ 1 μM, hydrochloride salt) [µM] | MIC (E. coli (Ec)) [µg/mL] | MIC (E. coli (Ec); [5]) [µg/mL] | IC50 ([1]; % inhibition @ 1 μM) [µM] | IC50 ([2]; % inhibition @ 1 μM) [µM]
C[C@@H]1CN(C(=O)Nc2ccn(-c3ccc(CN4CCC(CN)CC4)cc3)c(=O)n2)CCN1C(=O)C(C)(C)N [Compound 65] | < 0.5 | > 1 | < 8 | > 32 |  |  |  |  | 
CC(C)(N)C(=O)N1CCN(C(=O)Nc2ccn(-c3ccc(CN4CCC(N)CC4)cc3)c(=O)c2)[C@H](C(=O)O)C1 [Compound 64] | < 0.5 | > 1 | > 32 | > 32 |  |  |  |  | 
CC(Cc1ccc(-n2ccc(NC(=O)N3CCN(C(=O)C(C)(C)N)CC3)nc2=O)cc1)NCC1CNC1 (centres unmarked) [Compound 346, hydrochloride salt] |  | > 1 |  |  | 0.5 to 1 | > 32 |  |  | 
CC1(N)CCCN(Cc2ccc(-n3ccc(NC(=O)N4CCN(C(=O)C(C)(C)N)CC4)nc3=O)cc2)CC1.Cl (centres unmarked) [Compound 255] | < 0.5 | > 1 |  |  |  |  | < 8 |  | 
CC(C)(N)C(=O)N1CCN(C(=O)Nc2ccn(-c3ccc(CN4CCC[C@@H](N)C4)cc3)c(=O)n2)CC1 [Compound 236] | > 1 | > 1 |  |  |  |  | < 8 |  | 
C[C@H](N)C1CCN(Cc2ccc(-n3ccc(NC(=O)N4CCN(C(=O)[C@@](C)(N)CO)CC4)nc3=O)cc2)CC1 [Compound 221] | < 0.5 | > 1 |  |  |  |  | < 8 |  | 
CC(C)(N)N1CCN(C(=O)Nc2ccn(-c3ccc(CN4CCC(N)CC4)cc3)c(=O)n2)CC1 [Compound 230] | > 1 | > 1 |  |  |  |  | 8 to 32 |  | 
C[C@](N)(CO)C(=O)N1CCN(C(=O)Nc2ccn(-c3ccc(CCN4CCCC(N)CC4)cc3)c(=O)n2)CC1 (some centres unmarked) [Compound 381] |  |  |  |  |  |  | < 8 | < 0.5 | > 1
CC(C)(N)C(=O)N1CCN(C(=O)Nc2ccn(-c3ccc(CN4CCC(C(C)(C)N)CC4)cc3)c(=O)n2)CC1 [Compound 253] | < 0.5 | > 1 |  |  |  |  | < 8 |  | 
CC(C)(N)C(=O)N1CCN(C(=O)Nc2ccn(-c3ccc(CN4CC[C@@H](N)C(O)C4)cc3)c(=O)n2)CC1 (some centres unmarked) [Compound 267] | < 0.5 | > 1 |  |  |  |  | < 8 |  | 
CC(C)(N)C(=O)N1CCN(C(=O)Nc2ccn(-c3cccc(CCN4CCC(N)CC4)c3)c(=O)n2)CC1 [Compound 2] | < 0.5 | > 1 | 8 to 32 | > 32 |  |  |  |  | 
CNC1CCN(Cc2ccc(-n3ccc(NC(=O)N4CCN(C(=O)C(C)(C)N)CC4)nc3=O)cc2)CC1 [Compound 250] | < 0.5 | > 1 |  |  |  |  | < 8 |  | 
CC1(N)CN(Cc2ccc(-n3ccc(NC(=O)N4CCN(C(=O)C(C)(C)N)CC4)nc3=O)cc2)C1 [Compound 238] | > 1 | > 1 |  |  |  |  | < 8 |  | 
CC1CC(N)CCN1Cc1ccc(-n2ccc(NC(=O)N3CCN(C(=O)C(C)(C)N)CC3)nc2=O)cc1 (centres unmarked) [Compound 252] | < 0.5 | > 1 |  |  |  |  | < 8 |  | 
CC(C)(N)CN1CCN(Cc2ccc(-n3ccc(NC(=O)N4CCN(C(=O)C(C)(C)N)CC4)nc3=O)cc2)CC1 [Compound 226] | < 0.5 | > 1 |  |  |  |  | < 8 |  | 
CC(C)(N)C(=O)N1CCN(C(=O)Nc2ccn(-c3ccc(CN4CCC(CCN)CC4)cc3)c(=O)n2)CC1 [Compound 218] | < 0.5 | > 1 |  |  |  |  | < 8 |  | 
CC(C)(N)C(=O)N1CCN(C(=O)Nc2ccn(-c3ccc(CN4CCC(N)CC4)c(Cl)c3)c(=O)n2)CC1 [Compound 99] | < 0.5 | > 1 | < 8 | > 32 |  |  |  |  | 
CC1(N)CCCN(Cc2ccc(-n3ccc(NC(=O)N4CCN(C(=O)C(C)(C)N)CC4)nc3=O)cc2)C1 (centres unmarked) [Compound 246] | > 1 | > 1 |  |  |  |  | < 8 |  | 
CC(C)(N)C(=O)N1CCN(C(=O)Nc2ccn(-c3ccc(CN4CCCCC(N)C4)cc3)c(=O)n2)CC1 (centres unmarked) [Compound 240] | 0.5 to 1 | > 1 |  |  |  |  | > 32 |  | 
C[C@](N)(CO)C(=O)N1CCN(C(=O)Nc2ccn(-c3ccc(CN4CCC(N)CC4)cc3)c(=O)n2)CC1 [Compound 97] | < 0.5 | > 1 | 8 to 32 |  |  |  |  |  | 
C[C@@H](N)C1CCN(Cc2ccc(-n3ccc(NC(=O)N4CCN(C(=O)[C@@](C)(N)CO)CC4)nc3=O)cc2)CC1 [Compound 222] | < 0.5 | > 1 |  |  |  |  | < 8 |  | 
Cc1cn(-c2ccc(CN3CCC(N)CC3)cc2)c(=O)nc1NC(=O)N1CCN(C(=O)C(C)(C)N)CC1 [Compound 234] | > 1 | > 1 |  |  |  |  | > 32 |  | 
C[C@H]1CN(C(=O)C(C)(C)N)CCN1C(=O)Nc1ccn(-c2ccc(CN3CCC(N)CC3)cc2)c(=O)n1 [Compound 56] | < 0.5 | > 1 | < 8 | > 32 |  |  |  |  | 
CC(C)(N)C(=O)N1CCN(C(=O)Nc2ccn(-c3ccc(CN4CC[C@@H](N)C4)cc3)c(=O)n2)CC1 [Compound 239] | < 0.5 | > 1 |  |  |  |  | < 8 |  | 
CC(C)(N)C(=O)N1CCN(C(=O)Nc2ccn(-c3ccc(CN4CCC(F)(CN)CC4)cc3)c(=O)n2)CC1 [Compound 248] | < 0.5 | > 1 |  |  |  |  | < 8 |  | 
CC(C)(N)C(=O)N1CCN(C(=O)Nc2ccn(-c3ccc(CN4CC[C@H](N)C4)cc3)c(=O)n2)CC1 [Compound 241] | < 0.5 | > 1 |  |  |  |  | 8 to 32 |  | 
